Data: article PMC8802628, “Selective activation of PFKL suppresses the phagocytic oxidative burst” (Cell, 2021)
“Also recorded” adds a separate entry of the source.

Legend:
[1] = target: T1, PFKM+pocket (R315 to lysine) (Homo sapiens, UniProt P08237, R315K); test: Recombinant PFKM+pocket activity assay; format: biochemical
T1 construct: made in house; host or cells: Sf9 insect cells (baculovirus)
T1 sequence (P08237 1-780 R315K): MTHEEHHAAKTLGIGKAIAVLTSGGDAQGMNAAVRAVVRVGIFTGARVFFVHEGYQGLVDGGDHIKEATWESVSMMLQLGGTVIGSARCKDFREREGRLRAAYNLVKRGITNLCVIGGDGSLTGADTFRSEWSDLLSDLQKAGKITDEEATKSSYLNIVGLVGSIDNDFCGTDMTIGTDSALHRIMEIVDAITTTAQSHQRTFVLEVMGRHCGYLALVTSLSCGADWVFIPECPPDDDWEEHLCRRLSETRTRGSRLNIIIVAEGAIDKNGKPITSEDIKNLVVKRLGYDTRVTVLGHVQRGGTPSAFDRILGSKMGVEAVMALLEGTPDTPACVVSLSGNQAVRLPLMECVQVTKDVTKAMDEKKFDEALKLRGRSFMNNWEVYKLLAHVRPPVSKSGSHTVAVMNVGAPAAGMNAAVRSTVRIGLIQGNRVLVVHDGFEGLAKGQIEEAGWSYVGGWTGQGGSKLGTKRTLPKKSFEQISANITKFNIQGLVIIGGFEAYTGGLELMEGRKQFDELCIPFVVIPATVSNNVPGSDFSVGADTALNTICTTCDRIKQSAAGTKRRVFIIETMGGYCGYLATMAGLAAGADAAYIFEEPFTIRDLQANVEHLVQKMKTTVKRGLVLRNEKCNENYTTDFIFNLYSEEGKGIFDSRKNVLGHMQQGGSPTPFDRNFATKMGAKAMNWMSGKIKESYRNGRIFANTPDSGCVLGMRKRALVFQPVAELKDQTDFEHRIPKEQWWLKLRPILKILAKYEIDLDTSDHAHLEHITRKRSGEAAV
Excerpt: Recombinant N-terminal His-tagged human PFKL (NP_002617), PFKM (NP_000280), and PFKP (NM_002627.4) were generated as described ([Webb et al., 2015], [2017]). Point mutants of PFK1 were generated using the QuikChange Lightning kit (Aligent).
His-tagged PFK1 was expressed and purified as described with slight modifications ([Webb et al., 2015], [2017]). Briefly, baculovirus was generated using the Bac-to-Bac Expression system (Invitrogen). PFK1 was expressed in 2-5 × 10^6 sf9 cells at a multiplicity of infection of two for 48 h. Cells were lysed in 20 mM HEPES, pH 7.5, 80 mM potassium phosphate, 1 mM 2-mercapentoethanol, 10% glycerol, 10 mM imidazole, and EDTA-free Protease Inhibitor Cocktail (Abcam) with a Dounce homogenizer. The soluble lysate was incubated with HisPur cobalt resin (ThermoFisher Scientific). The resin was washed with 5 bead volumes lysis buffer, 10 bead volumes lysis buffer containing 2 M NaCl, and 5 further bead volumes lysis buffer. PFK1 was eluted in lysis buffer containing 100 mM imidazole. Fractions containing protein were pooled, passed over a desalting column equilibrated in freezing buffer [20 mM HEPES pH 7.5, 1 mM DTT, 500 μM ammonium sulfate, 5% glycerol, 1 mM ATP, and 100 μM EDTA] and concentrated using an Amicon Ultracel-30K Centrifugal Filter Unit (MilliporeSigma). Protein was quantified using a Bradford Protein Assay kit (ThermoFisher Scientific), and aliquotes frozen in liquid nitrogen for storage at −80°C.
PFK1 activity was determined using the rate of FBP production via an auxiliary enzyme assay adapted to a 96-well format ([Brüser et al., 2012]; [Webb et al., 2015]). The auxiliary enzymes aldolase, triosephosphate isomerase, and glycerol phosphate dehydrogenase were purchased from MilliporeSigma as ammonium sulfate slurries and desalted using an Amicon Ultracel-10K Centrifugal Filter Unit. For assays containing FBP, the rate of ADP production was determined using the auxiliary enzymes pyruvate kinase (PK) and lactate dehydrogenase (LDH) (MilliporeSigma) in a buffer containing 250 μM phosphoenolpyruvic acid, […] NADH, 50 mM HEPES pH 7.5, 100 mM KCl, 1 mM DTT, and effector concentrations as described in the text. The temperature was equilibrated to 25°C for 5 min before initiating the reaction 10 mM MgCl2. Absorbance at 340 nm was measured using a Varioskan LUX Multimode microplate reader (ThermoFisher). Kinetic parameters were generated by nonlinear regression analysis using Prism (GraphPad Software) and are the mean of a minimum of three measurements from two independent preparations of protein. One unit of activity was defined as the amount of enzyme that catalyzed the formation of 1 μmol of fructose 1,6-bisphosphate per min at 25°C. […]

PFK1 = PFK1 activity in PMN lysates; format: cell-based, human; conditions: for activation-induced reduction in PFK1 activity: neutrophils treated with PMA, LPS, or cholesterol crystals
Description: PFK1 activity assays from neutrophil lysates were modified from Abrantes et al., 2012. Briefly, neutrophils (10^7) were cultured with 0.5 μM NA-11 for 30 min, and then stimulated with 50 nM PMA, 5 μg/mL cholesterol crystals, 10 μg/mL LPS or 25 μM nigericin for 30 min. Cells were lysed in 10 mM PBS, 1% Triton X-100, and 1 x EDTA-free protease inhibitor cocktail on ice for 10 min. The soluble protein lysates were quantified by BCA assay (Pierce) and adjusted to 0.3125 mg/mL with lysis buffer. Lysate (80 μL) was mixed with 100 μL 2x enzyme cocktail solution (100 mM Tris-HCL pH7.4, 10 mM MgCl2, 0.5 mM ATP, 0.3 mM NADH, 1.35 units/mL Aldolase, 10 units/mL Triose phosphate isomerase, 4 units/mL glycerophosphate dehydrogenase, 20 mM ammonium sulfate) equilibrated to reach room temperature for 5 min. 20 μL of Fructose-6-phosphate (40 mM) was added and the reaction monitored for NADH decrease (absorbance at 340 nm) every 30 s for 30 min. Specific activity is in pmoles FBP per min per mg lysate.

PMNs = test: ROS detection assay (ROS-Glo) in neutrophils; format: cell-based, human; conditions: for PMA-induced ROS production: 50 nM PMA
Description: ROS were measured using the ROS-Glo bioluminescent assay (Promega) for the direct detection of H2O2. Briefly, neutrophils (2 × 10^4) were plated in white 96-well plates (Greiner) in high glucose DMEM medium. Cells were cultured with DMSO vehicle, 0.5 μM NA-11, 5 μM LDC7559, 100 μM apocynin, or 200 μM thionicotinamide for 30 min, and then stimulated with 50 nM PMA or treated with 10 μg/mL zymosan beads, pre-opsonized in 20% serum for 30 min. Luminescence, after the addition of H2O2 substrate solution of 20 min, and then ROS-Glo detection solution for 20 min, was recorded on a plate reader (Envision).

[2] = tested on: human peripheral blood neutrophils; test: NETosis assay in human neutrophils (SYTOX Green, DNA area); format: cell-based
[3] = PFKM+pocket, pH 7.0, 250 μM ATP

CC(=O)Nc1ccc2c(c1)OCc1cc(-c3ccccc3)nn1C2 [NA-5]
EC50 ([1]; pH 7.0, 4.0 mM ATP, 1.0 mM F6P, mean ± SEM, read-out: EC50, activation of PFKM+pocket): 10.9 ± 1.28 nM

COc1ccccc1-c1cc2n(n1)Cc1ccc(NC(C)=O)cc1OC2 [LDC7559, reference compound]
activation-induced reduction in PFK1 activity (PFK1): prevented
PMA-induced ROS production (PMNs): inhibited PMA-induced ROS production
NETosis in response to PMA ([2]; 10 μM compound, compared with DMSO vehicle): defective NETosis

O=C(CO)[C@@H](O)[C@H](O)[C@H](O)COP(=O)(O)O [F6P, fructose 6-phosphate]
Vmax,F6P [1, 3]: 17.29 ± 0.93 micromoles FBP per minute per milligram PFK1
hF6P (Hill coefficient) [1, 3]: 3.64 ± 0.69

CC(=O)Nc1ccc2c(c1)OCc1cc(-c3ccccc3C#CCCCO)nn1C2 [NA-11]
activation-induced reduction in PFK1 activity (PFK1): prevented
effect on PFK1 activity in resting neutrophils (PFK1; resting neutrophils): minimal
PMA-induced ROS production (PMNs): inhibited PMA-induced ROS production; also recorded: markedly suppressed, but did not completely prevent, PMA-induced ROS
ROS production during phagocytosis of opsonized zymosan (PMNs; over 2 h): kept ROS production at basal levels
time of addition after PMA up to which NETosis was inhibited ([2]; compound added after PMA-induced activation): up to 1 h
